# Reference: ChEMBL document CHEMBL4138175, “Newly designed organotin(IV) carboxylates with peptide linkage: Synthesis, structural elucidation, physicochemical characterizations and pharmacological investigations” (Eur J Med Chem, 2018)
# Calls of active or inactive are those of the source. No cut-off for these calls is given here.
# What was measured:
# NCI-H157 [1] = assay: Cytotoxicity against human NCI-H157 cells at 100 uM after 48 hrs by sulforhodamine B assay; type: functional
# NCI-H157 [2] = assay: Cytotoxicity against human NCI-H157 cells at 10 uM after 48 hrs by sulforhodamine B assay; type: functional
# NCI-H157 [3] = assay: Cytotoxicity against human NCI-H157 cells at 1 uM after 48 hrs by sulforhodamine B assay; type: functional
# NCI-H157 [4] = assay: Cytotoxicity against human NCI-H157 cells at 0.1 uM after 48 hrs by sulforhodamine B assay; type: functional
# BHK-21 [5] = assay: Cytotoxicity against golden hamster BHK21 cells at 100 uM after 48 hrs by sulforhodamine B assay; type: cell-based, Mesocricetus auratus; conditions: bhk-21, 48 h
# BHK-21 [6] = assay: Cytotoxicity against golden hamsterBHK21 cells at 10 uM after 48 hrs by sulforhodamine B assay; type: cell-based, Mesocricetus auratus; conditions: hamster, bhk-21, 48 h
# BHK-21 [7] = assay: Cytotoxicity against golden hamster BHK21 cells at 1 uM after 48 hrs by sulforhodamine B assay; type: cell-based, Mesocricetus auratus; conditions: bhk-21, 48 h
# BHK-21 [8] = assay: Cytotoxicity against golden hamster BHK21 cells at 0.1 uM after 48 hrs by sulforhodamine B assay; type: cell-based, Mesocricetus auratus; conditions: bhk-21, 48 h
# NCI-H157 [9] = assay: Cytotoxicity against human NCI-H157 cells after 48 hrs by sulforhodamine B assay; type: functional, cell-based
# BHK-21 [10] = assay: Cytotoxicity against golden hamster BHK21 cells after 48 hrs by sulforhodamine B assay; type: cell-based, Mesocricetus auratus; conditions: bhk-21, 48 h
# HepG2 = assay: Cytotoxicity against human HepG2 cells by MTT assay; type: functional, cell-based
# [11] = tested on: Agrobacterium tumefaciens; assay: Antitumor activity against Agrobacterium tumefaciens-induced tumor after 21 days by potato disc bioassay technique; type: functional
# Leishmania major [12] = assay: Antileishmanial activity against Leishmania major promastigotes at 100 uM after 72 hrs by MTT assay relative to control; type: functional
# Leishmania major [13] = assay: Antileishmanial activity against Leishmania major promastigotes at 10 uM after 72 hrs by MTT assay relative to control; type: functional
# Leishmania major [14] = assay: Antileishmanial activity against Leishmania major promastigotes at 1 uM after 72 hrs by MTT assay relative to control; type: functional
# Leishmania major [15] = assay: Antileishmanial activity against Leishmania major promastigotes at 0.1 uM after 72 hrs by MTT assay relative to control; type: functional
# Klebsiella pneumoniae [16] = assay: Antibacterial activity against Klebsiella pneumoniae assessed as zone of inhibition after 24 to 48 hrs by well diffusion method; type: functional
# Streptococcus pyogenes [17] = assay: Antibacterial activity against Streptococcus pyogenes assessed as zone of inhibition after 24 to 48 hrs by well diffusion method; type: functional
# [18] = tested on: Staphylococcus epidermidis; assay: Antibacterial activity against Staphylococcus epidermidis assessed as zone of inhibition after 24 to 48 hrs by well diffusion method; type: functional
# Staphylococcus aureus [19] = assay: Antibacterial activity against Staphylococcus aureus assessed as zone of inhibition after 24 to 48 hrs by well diffusion method; type: functional
# Serratia marcescens [20] = assay: Antibacterial activity against Serratia marcescens assessed as zone of inhibition after 24 to 48 hrs by well diffusion method; type: functional
# Pseudomonas aeruginosa [21] = assay: Antibacterial activity against Pseudomonas aeruginosa assessed as zone of inhibition after 24 to 48 hrs by well diffusion method; type: functional
# Escherichia coli [22] = assay: Antibacterial activity against Escherichia coli assessed as zone of inhibition after 24 to 48 hrs by well diffusion method; type: functional
# Klebsiella pneumoniae [23] = assay: Antibacterial activity against Klebsiella pneumoniae assessed as zone of inhibition by measuring activity index after 24 to 48 hrs by well diffusion method relative to penicillin G; type: functional, organism-based
# Streptococcus pyogenes [24] = assay: Antibacterial activity against Streptococcus pyogenes assessed as zone of inhibition by measuring activity index after 24 to 48 hrs by well diffusion method relative to tetracycline; type: functional, organism-based
# Streptococcus pyogenes [25] = assay: Antibacterial activity against Streptococcus pyogenes assessed as zone of inhibition by measuring activity index after 24 to 48 hrs by well diffusion method relative to penicillin G; type: functional, organism-based
# Streptococcus pyogenes [26] = assay: Antibacterial activity against Streptococcus pyogenes assessed as zone of inhibition by measuring activity index after 24 to 48 hrs by well diffusion method relative to ampicillin; type: functional, organism-based
# Streptococcus pyogenes [27] = assay: Antibacterial activity against Streptococcus pyogenes assessed as zone of inhibition by measuring activity index after 24 to 48 hrs by well diffusion method relative to amoxicillin; type: functional, organism-based
# [28] = tested on: Staphylococcus epidermidis; assay: Antibacterial activity against Staphylococcus epidermidis assessed as zone of inhibition by measuring activity index after 24 to 48 hrs by well diffusion method relative to penicillin G; type: functional, organism-based
# [29] = tested on: Staphylococcus epidermidis; assay: Antibacterial activity against Staphylococcus epidermidis assessed as zone of inhibition by measuring activity index after 24 to 48 hrs by well diffusion method relative to ampicillin; type: functional, organism-based
# Staphylococcus aureus [30] = assay: Antibacterial activity against Staphylococcus aureus assessed as zone of inhibition by measuring activity index after 24 to 48 hrs by well diffusion method relative to tetracycline; type: functional, organism-based
# Staphylococcus aureus [31] = assay: Antibacterial activity against Staphylococcus aureus assessed as zone of inhibition by measuring activity index after 24 to 48 hrs by well diffusion method relative to penicillin G; type: functional, organism-based
# Staphylococcus aureus [32] = assay: Antibacterial activity against Staphylococcus aureus assessed as zone of inhibition by measuring activity index after 24 to 48 hrs by well diffusion method relative to ampicillin; type: functional, organism-based
# Staphylococcus aureus [33] = assay: Antibacterial activity against Staphylococcus aureus assessed as zone of inhibition by measuring activity index after 24 to 48 hrs by well diffusion method relative to amoxicillin; type: functional, organism-based
# Serratia marcescens [34] = assay: Antibacterial activity against Serratia marcescens assessed as zone of inhibition by measuring activity index after 24 to 48 hrs by well diffusion method relative to penicillin G; type: functional
# Serratia marcescens [35] = assay: Antibacterial activity against Serratia marcescens assessed as zone of inhibition by measuring activity index after 24 to 48 hrs by well diffusion method relative to ampicillin; type: functional
# Serratia marcescens [36] = assay: Antibacterial activity against Serratia marcescens assessed as zone of inhibition by measuring activity index after 24 to 48 hrs by well diffusion method relative to amoxicillin; type: functional
# Pseudomonas aeruginosa [37] = assay: Antibacterial activity against Pseudomonas aeruginosa assessed as zone of inhibition by measuring activity index after 24 to 48 hrs by well diffusion method relative to ampicillin; type: functional, organism-based
# Escherichia coli [38] = assay: Antibacterial activity against Escherichia coli assessed as zone of inhibition by measuring activity index after 24 to 48 hrs by well diffusion method relative to tetracycline; type: functional
compound,measurement,setting,value
CC[C@]1(O)C[C@H]2CN(CCc3c([nH]c4ccccc34)[C@@](C(=O)OC)(c3cc4c(cc3OC)N(C=O)[C@H]3[C@@](O)(C(=O)OC)[C@H](OC(C)=O)[C@]5(CC)C=CCN6CC[C@]43[C@@H]65)C2)C1 [VINCRISTINE],Activity,NCI-H157 [1],74.5%
same,Activity,NCI-H157 [2],72.6%
same,Activity,NCI-H157 [3],70.9%
same,Activity,NCI-H157 [4],69.8%
same,Activity,BHK-21 [5],74.5%
same,Activity,BHK-21 [6],72.6%
same,Activity,BHK-21 [7],70.9%
same,Activity,BHK-21 [8],69.8%
same,Activity,NCI-H157 [9],Dose-dependent effect
same,Activity,BHK-21 [10],Dose-dependent effect
same,IC50,HepG2,0.042 mg/L
same,Activity,[11],100%
COc1ccc(NC(=O)c2ccccc2C(=O)[O-])c([N+](=O)[O-])c1.[Na+],Activity,NCI-H157 [1],52.2%
same,Activity,NCI-H157 [2],50.3%
same,Activity,NCI-H157 [3],35.2%
same,Activity,NCI-H157 [4],25.1%
same,Activity,BHK-21 [5],53.5%
same,Activity,BHK-21 [6],48.9%
same,Activity,BHK-21 [7],44.2%
same,Activity,BHK-21 [8],40.5%
same,Activity,Leishmania major [12],49.5%
same,Activity,Leishmania major [13],46.3%
same,Activity,Leishmania major [14],40.2%
same,Activity,Leishmania major [15],38.4%
same,inhibition zone (IZ),Klebsiella pneumoniae [16],inactive
same,inhibition zone (IZ),Streptococcus pyogenes [17],inactive
same,inhibition zone (IZ),[18],inactive
same,inhibition zone (IZ),Staphylococcus aureus [19],inactive
same,inhibition zone (IZ),Serratia marcescens [20],7.33 mm
same,inhibition zone (IZ),Pseudomonas aeruginosa [21],inactive
same,inhibition zone (IZ),Escherichia coli [22],5 mm
same,Activity_index,Klebsiella pneumoniae [23],inactive
same,Activity_index,Streptococcus pyogenes [24],inactive
same,Activity_index,Streptococcus pyogenes [25],inactive
same,Activity_index,Streptococcus pyogenes [26],inactive
same,Activity_index,Streptococcus pyogenes [27],inactive
same,Activity_index,[28],inactive
same,Activity_index,[29],inactive
same,Activity_index,Staphylococcus aureus [30],inactive
same,Activity_index,Staphylococcus aureus [31],inactive
same,Activity_index,Staphylococcus aureus [32],inactive
same,Activity_index,Staphylococcus aureus [33],inactive
same,Activity_index,Serratia marcescens [34],0.92
same,Activity_index,Serratia marcescens [35],0.92
same,Activity_index,Serratia marcescens [36],1.22
same,Activity_index,Pseudomonas aeruginosa [37],inactive
same,Activity_index,Escherichia coli [38],2.5
same,Activity,NCI-H157 [9],Dose-dependent effect
same,Activity,BHK-21 [10],Dose-dependent effect
